Results from patent EP4737445A1, “NOVEL SATURATED HETEROCYCLE-SUBSTITUTED HETEROARYL-CARBONOHYDRAZONOYL DICYANIDE COMPOUND AND USE THEREOF” (Korea Institute of Science and Technology, priority 2023, dated 2025).
Where two headings read alike, the source gives them in different places. Blank lines part the entries; values can stand above or below the compound they belong to.

What was measured:
Format in all cases: cell-based
TDP-43 BiFC cells = assay: Cell viability (stained nuclei count) in TDP-43-BiFC cells; conditions: Forskolin-only group = 100%
Procedure: (§1) To screen for new TDP-43 aggregation inhibitors, a TDP-43-BiFC cell model that facilitates observation of TDP-43 aggregate formation in living cells was used. Specifically, TDP-43-BiFC cells were dispensed into a 384-well plate, and the next day, the compounds prepared according to Examples 1 to 46 were treated at concentrations of 3 and 10 µM, respectively, together with Forskolin (treatment concentration 30 µM), which is a compound that induces TDP-43 aggregation by activating the phosphorylation enzyme PKA. After 48 hours, nuclei within cells were stained using Hoechst (treatment concentration 1 µg/mL), and BiFC fluorescence intensity was automatically quantified using Operetta (PerkinElmer) to count the stained nuclei in each well from the entire plate. The group treated only with Forskolin, which induces TDP-43 aggregation, was set as the reference point with 100% TDP-43 aggregation state, and the effect was confirmed by the formula "(BiFC fluorescence intensity by the compounds synthesized according to the Examples of the disclosure - fluorescence intensity of the untreated control group)/(fluorescence intensity of the control group treated only with Forskolin that induces TDP-43 aggregation - fluorescence intensity of the untreated control group) × 100". In addition, the degree of cytotoxicity induced by the newly synthesized compounds was also calculated using the formula "(number of stained nuclei in the compound-treated group/number of stained nuclei in the Forskolin-treated group) × 100", with the group treated only with Forskolin as the reference point at 100% viability. From the treatment results, substances that inhibit intracellular TDP-43 aggregation were identified through screening from a series of candidates based on the criteria of 80% or more TDP-43 aggregation inhibition and 60% cell viability at a compound treatment concentration of 3 µM.
(§2) Furthermore, to confirm the TDP-43 aggregation inhibitory effect according to the concentration of the compounds screened in Experimental Example 3, the screened compounds were treated to […] at concentrations of 0.003, 0.01, 0.03, 0.1, 0.3, 1, 3, and 10 µM, respectively, together with Forskolin (treatment concentration 30 µM), which is a TDP-43 aggregation-inducing substance. After 48 hours, cell images were examined to analyze the TDP-43 aggregation reaction and degree of cytotoxicity. The IC50 and toxicity of the compounds were analyzed by nonlinear regression analysis using Prism software (GraphPad). The calculated results for representative compounds are shown in Table 4 below: TDP-43 protein aggregation inhibitory effect and cell viability of novel compounds.

TDP-43 protein = target: T1, TDP-43 protein (Homo sapiens, UniProt Q13148); assay: TDP-43 aggregation inhibition in TDP-43-BiFC cell model (Forskolin-induced); conditions: for inhibition at 3 µM: read-out: TDP-43 protein aggregation inhibitory effect: Aggregation inhibitory effect (%) (@3 uM)
T1 construct: BiFC fluorescent-protein fragments (two complementary halves); expressed in transfected cells
Procedure: as §1, §2

Tau-BiFC cells = assay: Cell viability (stained nuclei count) in Tau-BiFC cells
Procedure: (§3) To screen for new tau aggregation inhibitors, a Tau-BiFC cell model that facilitates observation of tau oligomer formation in living cells was used. Tau-BiFC cells were dispensed into a 384-well plate, and the next day, the compounds prepared according to Examples 1 to 46 were treated at concentrations of 1, 3, and 10 µM, respectively, together with Forskolin (treatment concentration 30 µM), which is a compound that induces tau aggregation by activating the tau phosphorylation enzyme PKA. After 48 hours, nuclei within cells were stained using Hoechst (treatment concentration 2 µg/mL), and BiFC fluorescence intensity was automatically quantified using Operetta (Perkin Elmer) to count the stained nuclei in each well from the entire plate. The group treated only with Forskolin, which induces tau aggregation, was set as the reference point with 100% tau aggregation state, and the effect was confirmed by the formula "BiFC fluorescence intensity by the compounds synthesized according to the Examples of the disclosure/(fluorescence intensity of the control group treated only with Forskolin that induces tau aggregation - fluorescence intensity of the untreated control group) × 100". In addition, the degree of cytotoxicity induced by the newly synthesized compounds was also calculated using the formula "(number of stained nuclei in the compound-treated group/number of stained nuclei in the Forskolin-treated group) × 100", with the group treated only with Forskolin as the reference point at 100% viability. From the treatment results, substances that inhibit intracellular tau aggregation were identified through screening from a series of candidates based on the criteria of 70% or more tau aggregation inhibition and 100% cell viability at a compound treatment concentration of 10 µM.
(§4) To confirm the tau aggregation inhibitory effect according to the concentration of the compounds screened in Experimental Example 1, the screened compounds were treated to Tau-BiFC cells at concentrations of 0.03, 0.1, 0.3, 1, 3, 10, and 30 µM, respectively, together with Forskolin (treatment concentration 30 µM), which is a tau aggregation-inducing substance. After 48 hours, cell images were examined to analyze the tau aggregation reaction and degree of cytotoxicity. The IC50 and toxicity of the compounds were analyzed by nonlinear regression analysis using Prism software (GraphPad). The calculated results for representative compounds are shown in Table 3 below: Tau aggregation inhibitory effect and cell viability of novel compounds.

Tau = target: T2, Tau (Homo sapiens, UniProt P10636); assay: Tau aggregation inhibition in Tau-BiFC cell model (Forskolin-induced)
T2 construct: BiFC fluorescent-protein fragments (two complementary halves on two tau copies); expressed in transfected cells
Procedure: as §3, §4

[1] = @3 uM, TDP-43 BiFC cells, Forskolin 30 µM, 48 hours
[2] = @10 µM, Tau-BiFC cell line, Forskolin-only group = 100%
[3] = Tau-BiFC cell line, Forskolin 30 µM, 48 hours, 0.03-30 µM, read-out: Tau aggregation inhibitory effect IC50

T2 sequence (P10636 1-441 isoform P10636-8): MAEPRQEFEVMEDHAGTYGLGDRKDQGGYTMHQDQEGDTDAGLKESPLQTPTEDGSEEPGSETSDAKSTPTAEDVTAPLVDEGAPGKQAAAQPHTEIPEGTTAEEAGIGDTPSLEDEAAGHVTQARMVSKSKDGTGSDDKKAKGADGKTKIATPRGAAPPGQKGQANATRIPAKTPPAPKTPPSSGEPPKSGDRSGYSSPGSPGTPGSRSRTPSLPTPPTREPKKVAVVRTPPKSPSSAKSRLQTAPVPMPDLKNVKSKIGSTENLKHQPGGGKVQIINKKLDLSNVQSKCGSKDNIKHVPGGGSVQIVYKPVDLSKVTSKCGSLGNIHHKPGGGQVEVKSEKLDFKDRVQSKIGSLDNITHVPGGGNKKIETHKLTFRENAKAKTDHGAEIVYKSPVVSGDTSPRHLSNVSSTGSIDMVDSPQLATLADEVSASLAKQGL
T1 sequence (Q13148 whole entry, the tested form may be a part): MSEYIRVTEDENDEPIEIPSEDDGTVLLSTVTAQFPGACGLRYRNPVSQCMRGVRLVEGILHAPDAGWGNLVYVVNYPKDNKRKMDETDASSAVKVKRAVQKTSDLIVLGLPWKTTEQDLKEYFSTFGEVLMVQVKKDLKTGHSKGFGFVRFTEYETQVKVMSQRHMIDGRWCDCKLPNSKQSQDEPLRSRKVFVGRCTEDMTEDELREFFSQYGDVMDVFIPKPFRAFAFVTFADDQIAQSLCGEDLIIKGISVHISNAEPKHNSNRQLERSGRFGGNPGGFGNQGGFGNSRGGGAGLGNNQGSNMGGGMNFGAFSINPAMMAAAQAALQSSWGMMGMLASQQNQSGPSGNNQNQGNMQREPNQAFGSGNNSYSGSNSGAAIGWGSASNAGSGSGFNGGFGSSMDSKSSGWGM

inhibition at 3 µM (TDP-43 protein; [1]): 66.5%
Structure (SMILES): CC(C)(C)OC(=O)N1CCN(c2nc3ccc(NN=C(C#N)C#N)cc3s2)CC1 [Compound 22, tert-butyl 4-(6-(2-(dicyanomethylene)hydrazinyl)benzo[d]thiazol-2-yl)piperazine-1-carboxylate]
Cell viability (%) (@ 3 uM) (TDP-43 BiFC cells): 130.7%

Structure (SMILES): CC(=O)N(N=C(C#N)C#N)c1ccc2nc(N3CCOCC3)sc2c1 [Compound 37, acetyl(2-morpholinobenzo[d]thiazol-6-yl)carbonohydrazonoyl dicyanide]
Cell viability (%) (@ 3 uM) (TDP-43 BiFC cells): 61.3%
Cell viability (% @10µM) (Tau-BiFC cells; [2]): 85%
IC50 (Tau): 0.024 µM
IC50 (TDP-43 protein): 0.0007 µM
inhibition at 3 µM (TDP-43 protein): 91.2%

Structure (SMILES): N#CC(C#N)=NNc1ccc2nc(N3CCCC3)oc2c1 [Compound 45, (2-(pyrrolidin-1-yl)benzo[d]oxazol-6-yl)carbonohydrazonoyl dicyanide]
Cell viability (%) (@ 3 uM) (TDP-43 BiFC cells): 73.6%
Cell viability (% @10µM) (Tau-BiFC cells; [2]): 98%
IC50 (Tau): 0.004 µM
IC50 (TDP-43 protein): 0.371 µM
inhibition at 3 µM (TDP-43 protein): 81.1%

Structure (SMILES): CN(C)c1ccc(-c2nc3ccc(NN=C(C#N)C#N)cc3s2)cc1 [Comparative compound 4, N-(2-(4-(dimethylamino)phenyl)benzo[d]thiazol-6-yl) carbonohydrazonoyl dicyanide, reference compound]
Cell viability (% @10µM) (Tau-BiFC cells; [2]): 80%
IC50 (Tau; [3]): 3.1 µM

Structure (SMILES): N#CC(C#N)=NNc1ccc2nc(N3CC[C@H](F)C3)oc2c1 [Compound 43, (S)-(2-(3-fluoropyrrolidin-1-yl)benzo[d]oxazol-6-yl)carbonohydrazonoyl dicyanide]
Cell viability (%) (@ 3 uM) (TDP-43 BiFC cells): 89.0%
Cell viability (% @10µM) (Tau-BiFC cells; [2]): 100%
IC50 (Tau; read-out: Tau aggregation inhibitory effect IC50, Tau-BiFC cell line, Forskolin 30 µM, 48 hours, 0.03-30 µM): 0.028 µM
inhibition at 3 µM (TDP-43 protein): 92.9%

Structure (SMILES): N#CC(C#N)=NNc1ccc2nc(-c3cccs3)sc2c1 [Comparative compound 5, N-(2-(thiophen-2-yl)benzo[d]thiazol-6-yl) carbonohydrazonoyl dicyanide, reference compound]
Cell viability (% @10µM) (Tau-BiFC cells; [2]): 70%
IC50 (Tau): 7.3 µM

Structure (SMILES): N#CC(C#N)=NNc1ccc2nc(N3CCC[C@@H](F)C3)oc2c1 [Compound 47, (R)-N-(2-(3-fluoropiperidin-1-yl)benzo[d]oxazol-6-yl)carbonohydrazonoyl dicyanide]
Cell viability (% @10µM) (Tau-BiFC cells; [2]): 100%
IC50 (Tau): 0.117 µM

Structure (SMILES): N#CC(C#N)=NNc1ccc2nc(N3CCCCC3)oc2c1 [Compound 46, (2-(piperidin-1-yl)benzo[d]oxazol-6-yl)carbonohydrazonoyl dicyanide]
Cell viability (%) (@ 3 uM) (TDP-43 BiFC cells): 73.6%
Cell viability (% @10µM) (Tau-BiFC cells; [2]): 100%
IC50 (Tau): 0.016 µM
IC50 (TDP-43 protein): 0.32 µM
inhibition at 3 µM (TDP-43 protein): 81.4%

Structure (SMILES): CN(N=C(C#N)C#N)c1ccc2nc(N3C4CCC3COC4)sc2c1 [Compound 36, (2-(3-oxa-8-azabicyclo[3.2.1]octan-8-yl)benzo[d]thiazol-6-yl)(methyl)carbonohydrazonoyl dicyanide]
Cell viability (% @10µM) (Tau-BiFC cells; [2]): 97%
IC50 (Tau): 0.136 µM

Structure (SMILES): N#CC(C#N)=NNc1ccc2nc(N3CCC[C@H](F)C3)oc2c1 [Compound 42, (S)-(2-(3-fluoropiperidin-1-yl)benzo[d]oxazol-6-yl)carbonohydrazonoyl dicyanide]
Cell viability (%) (@ 3 uM) (TDP-43 BiFC cells): 62.4%
Cell viability (% @10µM) (Tau-BiFC cells; [2]): 100%
IC50 (Tau): 0.02 µM
inhibition at 3 µM (TDP-43 protein): 64.7%

IC50 (Tau; [3]): 0.036 µM
inhibition at 3 µM (TDP-43 protein; [1]): 47.2%
Structure (SMILES): C[C@@H]1CN(c2nc3ccc(NN=C(C#N)C#N)cc3s2)C[C@H](C)N1C(=O)OC(C)(C)C [Compound 29, (2R,6S)-tert-butyl 4-(6-(2-(dicyanomethylene)hydrazinyl)benzo[d]thiazol-2-yl)-2,6-dimethylpiperazine-1-carboxylate]
Cell viability (%) (@ 3 uM) (TDP-43 BiFC cells): 96.2%
Cell viability (% @10µM) (Tau-BiFC cells; 48 h, 10 µM): 97%

Structure (SMILES): N#CC(C#N)=NNc1ccc2nc(N3CCCC(F)C3)oc2c1 (stereo not shown) [Compound 44, (2-(3-fluoropiperidin-1-yl)benzo[d]oxazol-6-yl)carbonohydrazonoyl dicyanide]
Cell viability (%) (@ 3 uM) (TDP-43 BiFC cells): 85.0%
Cell viability (% @10µM) (Tau-BiFC cells; [2]): 100%
IC50 (Tau): 0.012 µM
inhibition at 3 µM (TDP-43 protein): 71.1%

Structure (SMILES): N#CC(C#N)=NNc1ccc2nc(-c3ccccc3)sc2c1 [Comparative compound 2, N-(2-phenylbenzo[d]thiazol-6-yl) carbonohydrazonoyl dicyanide, reference compound]
Cell viability (% @10µM) (Tau-BiFC cells; [2]): 65%
IC50 (Tau): 2.8 µM

Structure (SMILES): N#CC(C#N)=NNc1cc2oc(N3CCOCC3)nc2cc1Cl [Compound 19, (5-chloro-2-morpholinobenzo[d]oxazol-6-yl)carbonohydrazonoyl dicyanide]
Cell viability (%) (@ 3 uM) (TDP-43 BiFC cells): 97.0%
Cell viability (% @10µM) (Tau-BiFC cells; [2]): 100%
IC50 (Tau): 0.453 µM
inhibition at 3 µM (TDP-43 protein): 92.6%

Structure (SMILES): N#CC(C#N)=NNc1ccc2nc(-c3ccc(F)cc3)sc2c1 [Comparative compound 3, N-(2-(4-fluorophenyl)benzo[d]thiazol-6-yl) carbonohydrazonoyl dicyanide, reference compound]
Cell viability (% @10µM) (Tau-BiFC cells; [2]): 50%
IC50 (Tau): 3.2 µM
